Patent US7626031B2, “Substituted 3-(diarylmethylene)indolin-2-ones and methods of their use” (Symphony Evolution, Inc., priority 2002, dated 2009)
pIC50: −log10 of the molar value.

What was measured:
Fyn = Fyn (Homo sapiens, UniProt P06241); test: Kinase assay, Fyn; type: biochemical
Experimental: (§1) Kinase activity and compound inhibition are investigated using one or more assay formats. The ATP concentrations for each assay are selected to be close to the Michaelis-Menten constant (KM) for each individual kinase. Dose-response experiments are performed at 10 different inhibitor concentrations in a 384-well plate format. […] Exemplary kinase assays are described below. KDR Assay

PDGFR alpha = PDGFR alpha (Homo sapiens, UniProt P16234); test: Kinase assay, PDGFR alpha (33P-ATP incorporation or luciferase-coupled ATP consumption); type: biochemical; conditions: read-out: PDGF-R-A IC50
Experimental: (§2) Kinase assays were performed by measurement of incorporation of γ-^33P ATP into immobilized myelin basic protein (MBP). […] Plates were washed 3× with 100 μl TBS. […] Compound dilutions were performed in DMSO and added to assay wells to a final DMSO concentration of 1%. Each data point was measured in duplicate, and at least two duplicate assays were performed for each individual compound determination. Enzyme was added to final concentrations of 10 nM or 20 nM, for example. A mixture of unlabeled ATP and γ-^33P ATP was added to start the reaction (2×10^6 cpm of γ-^33P ATP per well (3000 Ci/mmole) and either 10 μM or 30 μM unlabeled ATP, typically. The reactions were carried out for 1 hour at room temperature with shaking. Plates were washed 7× with TBS, followed by the addition of 50 μl/well scintillation fluid (Wallac). Plates were read using a Wallac Trilux counter. This is only one format of such assays, various other formats are possible, as known to one of ordinary skill in the art.
(§3) Tyrosine kinase activity is determined by 1) measurement of kinase-dependent ATP consumption by in the presence of a generic substrate such as, polyglutamic acid, tyrosine, 4:1 (pEY), by luciferase/luciferin-mediated chemiluminescence or; 2) incorporation of radioactive phosphate derived from ^33P-ATP into a generic substrate which has been adsorbed onto the well surface of polystyrene microtiter plates. Phosphorylated substrate products are quantified by scintillation spectrometry.
as §1

[1] = target: T1, KDR (baculovirus expressed human KDR kinase domain D807-V1356) (Homo sapiens, UniProt P35968); test: biochemical
T1 construct: human KDR kinase domain D807-V1356; host or cells: baculovirus expression system
T1 sequence (P35968 807-1356): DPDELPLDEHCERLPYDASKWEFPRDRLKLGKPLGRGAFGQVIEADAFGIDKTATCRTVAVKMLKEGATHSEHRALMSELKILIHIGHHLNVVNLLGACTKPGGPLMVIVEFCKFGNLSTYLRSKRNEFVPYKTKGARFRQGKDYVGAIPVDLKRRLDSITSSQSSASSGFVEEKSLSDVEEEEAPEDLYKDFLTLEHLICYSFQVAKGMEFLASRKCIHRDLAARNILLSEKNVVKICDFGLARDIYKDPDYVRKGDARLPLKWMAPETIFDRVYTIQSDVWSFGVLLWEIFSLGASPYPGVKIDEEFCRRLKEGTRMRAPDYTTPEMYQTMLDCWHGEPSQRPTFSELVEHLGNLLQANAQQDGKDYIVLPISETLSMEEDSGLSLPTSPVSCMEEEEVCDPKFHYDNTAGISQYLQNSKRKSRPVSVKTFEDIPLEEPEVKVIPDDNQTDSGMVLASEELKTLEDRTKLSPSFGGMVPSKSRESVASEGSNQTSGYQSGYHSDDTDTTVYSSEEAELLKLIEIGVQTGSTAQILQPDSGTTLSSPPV
Experimental: as §1
KDR biochemical activity was assessed using a Luciferase-Coupled Chemiluminescent Kinase assay (LCCA) format. Kinase activity was measured as the percent ATP remaining following the kinase reaction. Remaining ATP was detected by luciferase-luciferin-coupled chemiluminescence. […] The mixture is incubated at ambient temperature for 4 hours after which 20 uL luciferase-luciferin mix is added and the chemiluminescent signal read using a Wallac Victor^2 reader.

IRK = IRK (Homo sapiens, UniProt P06213); test: Kinase assay, IRK; type: biochemical
Chain of IRK (P06213 28-1382): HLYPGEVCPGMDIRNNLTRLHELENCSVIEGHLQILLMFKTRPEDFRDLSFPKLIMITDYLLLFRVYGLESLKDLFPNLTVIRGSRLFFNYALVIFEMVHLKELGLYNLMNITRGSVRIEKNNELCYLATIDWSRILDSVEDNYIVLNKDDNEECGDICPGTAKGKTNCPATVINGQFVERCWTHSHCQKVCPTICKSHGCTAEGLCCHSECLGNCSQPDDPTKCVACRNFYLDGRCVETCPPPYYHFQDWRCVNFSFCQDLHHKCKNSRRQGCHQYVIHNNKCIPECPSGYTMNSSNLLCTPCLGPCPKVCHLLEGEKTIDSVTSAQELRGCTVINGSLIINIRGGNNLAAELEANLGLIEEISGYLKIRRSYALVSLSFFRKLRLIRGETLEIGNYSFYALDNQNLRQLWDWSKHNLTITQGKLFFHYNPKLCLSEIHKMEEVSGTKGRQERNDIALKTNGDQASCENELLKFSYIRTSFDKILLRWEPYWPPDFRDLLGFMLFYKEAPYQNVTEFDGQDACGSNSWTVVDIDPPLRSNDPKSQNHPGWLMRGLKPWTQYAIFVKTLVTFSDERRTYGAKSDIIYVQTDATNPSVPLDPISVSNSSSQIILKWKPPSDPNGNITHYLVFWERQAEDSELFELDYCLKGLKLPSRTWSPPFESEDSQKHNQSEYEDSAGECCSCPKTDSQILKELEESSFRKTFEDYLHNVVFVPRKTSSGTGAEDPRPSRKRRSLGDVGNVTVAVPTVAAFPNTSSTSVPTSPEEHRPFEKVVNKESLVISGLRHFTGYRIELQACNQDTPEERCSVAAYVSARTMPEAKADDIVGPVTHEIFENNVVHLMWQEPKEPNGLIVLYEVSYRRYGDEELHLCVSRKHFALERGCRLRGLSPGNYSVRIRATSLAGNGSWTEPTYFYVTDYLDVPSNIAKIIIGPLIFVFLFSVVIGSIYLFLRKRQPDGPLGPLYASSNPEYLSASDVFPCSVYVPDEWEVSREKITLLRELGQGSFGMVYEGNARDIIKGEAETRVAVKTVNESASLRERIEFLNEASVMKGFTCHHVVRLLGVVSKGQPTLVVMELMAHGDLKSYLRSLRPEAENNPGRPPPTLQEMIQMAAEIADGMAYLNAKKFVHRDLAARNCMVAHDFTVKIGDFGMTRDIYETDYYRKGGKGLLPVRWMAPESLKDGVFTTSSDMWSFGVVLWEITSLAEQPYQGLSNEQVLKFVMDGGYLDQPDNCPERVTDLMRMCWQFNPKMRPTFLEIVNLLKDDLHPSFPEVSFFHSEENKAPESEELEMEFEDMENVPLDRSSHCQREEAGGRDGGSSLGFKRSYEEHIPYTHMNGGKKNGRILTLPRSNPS
Experimental: as §1

EphA2 = EphA2 (Homo sapiens, UniProt P29317); test: Kinase assay, EphA2 (33P-ATP incorporation or luciferase-coupled ATP consumption); type: biochemical
Chain of EphA2 (P29317 24-976, species assumed): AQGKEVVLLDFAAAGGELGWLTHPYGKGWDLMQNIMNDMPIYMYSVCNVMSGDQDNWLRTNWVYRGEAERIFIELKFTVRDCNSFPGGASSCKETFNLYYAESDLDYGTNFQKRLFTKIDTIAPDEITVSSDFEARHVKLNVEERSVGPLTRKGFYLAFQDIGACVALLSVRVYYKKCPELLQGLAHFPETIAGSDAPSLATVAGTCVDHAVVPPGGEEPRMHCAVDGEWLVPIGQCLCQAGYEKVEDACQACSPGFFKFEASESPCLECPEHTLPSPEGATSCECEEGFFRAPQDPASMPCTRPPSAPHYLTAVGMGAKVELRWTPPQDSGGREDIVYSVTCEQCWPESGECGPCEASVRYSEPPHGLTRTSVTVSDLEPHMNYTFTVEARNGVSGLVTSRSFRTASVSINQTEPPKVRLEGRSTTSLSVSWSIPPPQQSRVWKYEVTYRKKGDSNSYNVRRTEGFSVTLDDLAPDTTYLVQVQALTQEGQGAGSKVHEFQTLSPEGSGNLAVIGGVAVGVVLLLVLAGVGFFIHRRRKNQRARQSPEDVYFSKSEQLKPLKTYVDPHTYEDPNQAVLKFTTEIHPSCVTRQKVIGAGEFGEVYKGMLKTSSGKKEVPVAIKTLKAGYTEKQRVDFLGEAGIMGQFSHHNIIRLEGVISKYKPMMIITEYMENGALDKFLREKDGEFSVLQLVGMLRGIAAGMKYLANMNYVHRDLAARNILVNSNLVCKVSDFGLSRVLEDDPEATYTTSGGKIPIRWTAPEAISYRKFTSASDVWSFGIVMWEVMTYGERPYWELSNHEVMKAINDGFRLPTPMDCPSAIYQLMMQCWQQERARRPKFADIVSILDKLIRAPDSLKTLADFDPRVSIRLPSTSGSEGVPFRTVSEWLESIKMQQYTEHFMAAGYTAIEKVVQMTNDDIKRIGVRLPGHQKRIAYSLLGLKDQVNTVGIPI
Experimental: as §2, §3, §1

EGFR = EGFR (Homo sapiens, UniProt P00533); test: Kinase assay, EGFR (33P-ATP incorporation or luciferase-coupled ATP consumption); type: biochemical
Experimental: as §2, §3, §1

Flt-1 = Flt-1 (Homo sapiens, UniProt P17948); test: Kinase assay, Flt-1 (33P-ATP incorporation or luciferase-coupled ATP consumption); type: biochemical; conditions: read-out: Flt1 IC50
Chain of Flt-1 (P17948 27-1338, species assumed): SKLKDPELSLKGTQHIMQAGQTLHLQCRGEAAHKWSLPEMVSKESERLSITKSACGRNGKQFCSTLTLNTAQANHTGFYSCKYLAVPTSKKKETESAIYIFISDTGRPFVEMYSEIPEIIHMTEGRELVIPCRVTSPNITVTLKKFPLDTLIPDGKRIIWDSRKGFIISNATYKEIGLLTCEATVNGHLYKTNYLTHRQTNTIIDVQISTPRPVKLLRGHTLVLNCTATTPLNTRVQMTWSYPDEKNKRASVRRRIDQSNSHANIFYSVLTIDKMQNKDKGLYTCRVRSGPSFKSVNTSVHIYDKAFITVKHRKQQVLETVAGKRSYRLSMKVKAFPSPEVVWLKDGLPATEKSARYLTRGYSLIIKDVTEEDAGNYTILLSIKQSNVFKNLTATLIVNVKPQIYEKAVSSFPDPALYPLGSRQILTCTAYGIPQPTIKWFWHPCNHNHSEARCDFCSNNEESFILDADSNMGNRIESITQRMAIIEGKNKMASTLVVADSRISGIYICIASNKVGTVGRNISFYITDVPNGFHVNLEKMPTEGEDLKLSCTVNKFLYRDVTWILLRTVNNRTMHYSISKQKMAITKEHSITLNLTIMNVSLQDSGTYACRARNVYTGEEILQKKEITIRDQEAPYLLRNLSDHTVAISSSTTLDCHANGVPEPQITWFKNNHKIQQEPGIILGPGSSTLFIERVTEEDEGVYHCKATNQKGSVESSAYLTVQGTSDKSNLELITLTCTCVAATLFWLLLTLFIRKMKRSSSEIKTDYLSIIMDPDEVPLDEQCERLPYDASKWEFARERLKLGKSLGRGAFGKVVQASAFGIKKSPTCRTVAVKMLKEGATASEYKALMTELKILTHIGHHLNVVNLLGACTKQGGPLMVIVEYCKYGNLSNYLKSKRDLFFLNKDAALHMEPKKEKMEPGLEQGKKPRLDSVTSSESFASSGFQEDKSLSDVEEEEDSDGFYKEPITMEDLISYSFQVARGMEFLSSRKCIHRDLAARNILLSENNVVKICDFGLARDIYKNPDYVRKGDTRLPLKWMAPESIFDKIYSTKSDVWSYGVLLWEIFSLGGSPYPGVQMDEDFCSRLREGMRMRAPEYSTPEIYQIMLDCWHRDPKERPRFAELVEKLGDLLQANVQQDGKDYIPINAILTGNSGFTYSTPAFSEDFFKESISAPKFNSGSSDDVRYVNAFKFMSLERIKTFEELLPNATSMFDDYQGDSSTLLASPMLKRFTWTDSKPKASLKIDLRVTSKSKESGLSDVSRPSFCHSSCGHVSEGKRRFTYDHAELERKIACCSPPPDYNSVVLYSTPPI
Experimental: as §2, §3, §1

Chain of Fyn (P06241 whole entry, species assumed): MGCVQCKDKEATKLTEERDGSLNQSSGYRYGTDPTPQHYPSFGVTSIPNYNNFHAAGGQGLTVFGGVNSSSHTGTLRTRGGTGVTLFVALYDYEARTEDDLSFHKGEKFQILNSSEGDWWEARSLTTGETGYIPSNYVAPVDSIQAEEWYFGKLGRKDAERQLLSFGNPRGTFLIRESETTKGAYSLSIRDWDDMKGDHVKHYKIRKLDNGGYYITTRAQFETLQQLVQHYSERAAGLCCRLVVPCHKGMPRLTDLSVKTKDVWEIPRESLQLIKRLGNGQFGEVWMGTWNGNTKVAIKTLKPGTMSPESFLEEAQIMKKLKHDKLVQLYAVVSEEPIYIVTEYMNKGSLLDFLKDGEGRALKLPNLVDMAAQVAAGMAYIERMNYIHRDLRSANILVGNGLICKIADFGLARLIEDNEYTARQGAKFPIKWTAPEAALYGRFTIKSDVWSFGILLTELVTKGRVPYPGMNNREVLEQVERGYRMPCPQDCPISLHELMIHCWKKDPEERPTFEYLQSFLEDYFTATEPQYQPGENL

| pIC50 (Fyn) | pIC50 (PDGFR alpha) | pIC50 [1] | pIC50 (IRK) | pIC50 (EphA2) | pIC50 (EGFR) | pIC50 (Flt-1) | Compound |
| --- | --- | --- | --- | --- | --- | --- | --- |
| > 7.30 | > 7.30 | > 7.30 | 5.30 to 6.30 | 5.30 to 6.30 | 5.30 to 6.30 | 6.30 to 7.30 | CCN1CCC(Nc2ccc3c(c2)/C(=C(\c2ccc(C)cc2)c2nc4cc(OC)ccc4[nH]2)C(=O)N3)CC1 [Entry 6, (3Z)-5-[(1-ethylpiperidin-4-yl)amino]-3-[[5-(methyloxy)-1 H-benzimidazol-2-yl](4-methylphenyl)methylidene]-1,3-dihydro-2H-indol-2-one] |
| 6.30 to 7.30 | > 7.30 | > 7.30 | < 5.30 | < 5.30 | 5.30 to 6.30 | 6.30 to 7.30 | CCN1CCC(Nc2ccc3c(c2)/C(=C(\c2ccc([N+](=O)[O-])cc2)c2nc4ccccc4[nH]2)C(=O)N3)CC1 [Entry 7, (3Z)-3-(1H-benzimidazol-2-yl(4-nitrophenyl)methylidene]-5-[(1-ethylpiperidin-4-yl)amino]-1,3-dihydro-2H-indol-2-one] |
| 5.30 to 6.30 | 6.30 to 7.30 | 5.30 to 6.30 | 5.30 to 6.30 | 5.30 to 6.30 | 5.30 to 6.30 | 5.30 to 6.30 | COc1ccc2[nH]c(/C(=C3\C(=O)Nc4ccc(NC5CC(C)(C)NC(C)(C)C5)cc43)c3ccccc3)nc2c1 [Entry 10, (3Z)-3-[[5-(methyloxy)-1H-benzimidazol-2-yl](phenyl)methylidene]-5-[(2,2,6,6-tetramethylpiperidin-4-yl)amino]-1,3-dihydro-2H-indol-2-one] |
| > 7.30 | > 7.30 | > 7.30 | 5.30 to 6.30 | 5.30 to 6.30 | 6.30 to 7.30 | 6.30 to 7.30 | CCN1CCC(Nc2ccc3c(c2)/C(=C(\c2ccc(N)cc2)c2nc4ccccc4[nH]2)C(=O)N3)CC1 [Entry 11, (3Z)-3-[(4-aminophenyl)(1H-benzimidazol-2-yl)methylidene]-5-[(1-ethylpiperidin-4-yl)amino]1,3-dihydro-2H-indol-2-one] |
| > 7.30 | > 7.30 | > 7.30 | 5.30 to 6.30 | 5.30 to 6.30 | 5.30 to 6.30 | 6.30 to 7.30 | CCN1CCC(Nc2ccc3c(c2)/C(=C(\c2ccc(OC)cc2)c2ncc[nH]2)C(=O)N3)CC1 [Entry 15, (3Z)-5-[(1-ethylpiperidin-4-yl)amino]-3-{1H-imidazol-2-yl[4-(methyloxy)phenyl]methylidene}-1,3-dihydro-2H-indol-2-one] |
| 6.30 to 7.30 | > 7.30 | > 7.30 | 5.30 to 6.30 | 5.30 to 6.30 | 5.30 to 6.30 | 6.30 to 7.30 | CCN1CCC(Nc2ccc3c(c2)/C(=C(\c2ccc(F)cc2)c2nc4ccccc4[nH]2)C(=O)N3)CC1 [Entry 16, (3Z)-3-[1H-benzimidazol-2-yl(4-fluorophenyl)methylidene]-5[(1-ethylpiperidin-4-yl)amino]-1,3-dihydro-2H-indol-2-one] |
| 6.30 to 7.30 | > 7.30 | > 7.30 | 5.30 to 6.30 | 5.30 to 6.30 | 5.30 to 6.30 | 6.30 to 7.30 | CCN1CCC(Nc2ccc3c(c2)/C(=C(\c2cccc([N+](=O)[O-])c2)c2nc4ccccc4[nH]2)C(=O)N3)CC1 [Entry 19, (3Z)-3-[1H-benzimidazol-2-yl(3-nitrophenyl)methylidene]-5-[(1-ethylpiperidin-4-yl)amino]-1,3-dihydro-2H-indol-2-one] |
| 6.30 to 7.30 | 6.30 to 7.30 | > 7.30 | 5.30 to 6.30 | 5.30 to 6.30 | 5.30 to 6.30 | 5.30 to 6.30 | CCN1CCC(Nc2ccc3c(c2)/C(=C(\c2cccc(C#N)c2)c2nc4ccccc4[nH]2)C(=O)N3)CC1 [Entry 20, 3-((Z)-1H-benzimidazol-2-yl{5-[(1-ethylpiperidin-4-yl)amino]-2-oxo-1,2-dihydro-3H-indol-3-ylidene)methyl) benzonitrile] |
